According to PubChem BioAssay (NCI):
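Five compound concentrations were applied to cells in 96-well plates for 48 hours; endpoints were derived by simple linear interpolation of the resulting dose-response curve. At the GI50, growth is halved. TGI denotes the concentration required for complete inhibition of growth.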

Key:
Assay in all cases: NCI anticancer screen, dose series, 48 h
SK-OV-3 ovarian = tested on: SK-OV-3 ovarian
OVCAR-5 ovarian = tested on: OVCAR-5 ovarian
UACC-257 melanoma = tested on: UACC-257 melanoma
SNB-75 CNS = tested on: SNB-75 CNS
SF-295 CNS = tested on: SF-295 CNS
NCI/ADR-RES ovarian = tested on: NCI/ADR-RES ovarian
HCT-116 colon = tested on: HCT-116 colon
RPMI-8226 leukemia = tested on: RPMI-8226 leukemia
UO-31 renal = tested on: UO-31 renal
SF-268 CNS = tested on: SF-268 CNS
U251 CNS = tested on: U251 CNS
COLO 205 colon = tested on: COLO 205 colon
OVCAR-8 ovarian = tested on: OVCAR-8 ovarian
NCI-H23 lung = tested on: NCI-H23 lung
HS 578T breast = tested on: HS 578T breast
A549 NSCLC = tested on: A549 NSCLC
DU-145 prostate = tested on: DU-145 prostate
HOP-92 NSCLC = tested on: HOP-92 NSCLC
ACHN renal = tested on: ACHN renal
HT29 colon = tested on: HT29 colon
MDA-MB-231 breast = tested on: MDA-MB-231 breast
OVCAR-3 ovarian = tested on: OVCAR-3 ovarian
EKVX NSCLC = tested on: EKVX NSCLC
HCT-15 colon = tested on: HCT-15 colon
OVCAR-4 ovarian = tested on: OVCAR-4 ovarian
NCI-H226 lung = tested on: NCI-H226 lung
CCRF-CEM leukemia = tested on: CCRF-CEM leukemia
786-0 renal = tested on: 786-0 renal
SK-MEL-2 melanoma = tested on: SK-MEL-2 melanoma
RXF 393 renal = tested on: RXF 393 renal
NCI-H522 lung = tested on: NCI-H522 lung
MCF7 breast = tested on: MCF7 breast
CAKI-1 renal = tested on: CAKI-1 renal
SF-539 CNS = tested on: SF-539 CNS
SNB-19 CNS = tested on: SNB-19 CNS
SN12C renal = tested on: SN12C renal
SR leukemia = tested on: SR leukemia
MALME-3M melanoma = tested on: MALME-3M melanoma
BT-549 breast = tested on: BT-549 breast
SK-MEL-5 melanoma = tested on: SK-MEL-5 melanoma
HL-60(TB) leukemia = tested on: HL-60(TB) leukemia
UACC-62 melanoma = tested on: UACC-62 melanoma
HCC-2998 colon = tested on: HCC-2998 colon
SK-MEL-28 melanoma = tested on: SK-MEL-28 melanoma
M14 melanoma = tested on: M14 melanoma
KM12 colon = tested on: KM12 colon
MOLT-4 leukemia = tested on: MOLT-4 leukemia
NCI-H460 lung = tested on: NCI-H460 lung
MDA-MB-435 = tested on: MDA-MB-435
HOP-62 NSCLC = tested on: HOP-62 NSCLC
LOX IMVI melanoma = tested on: LOX IMVI melanoma
PC-3 prostate = tested on: PC-3 prostate
IGROV1 ovarian = tested on: IGROV1 ovarian
A498 renal = tested on: A498 renal
SW-620 colon = tested on: SW-620 colon
T-47D breast = tested on: T-47D breast
TK-10 renal = tested on: TK-10 renal

Structure (SMILES): CCc1ccc(C(=O)/C=C/C23c4ccccc4C(c4ccccc42)C2C(=O)NC(=O)C23)cc1 (centres undefined)
- GI50 (SK-OV-3 ovarian): 2840 nM
- TGI (SK-OV-3 ovarian): 7540 nM
- GI50 (OVCAR-5 ovarian): 2230 nM
- TGI (OVCAR-5 ovarian): 5570 nM
- GI50 (UACC-257 melanoma): 1900 nM
- TGI (UACC-257 melanoma): 4150 nM
- GI50 (SNB-75 CNS): 1670 nM
- TGI (SNB-75 CNS): 3450 nM
- GI50 (SF-295 CNS): 2450 nM
- TGI (SF-295 CNS): 5730 nM
- GI50 (NCI/ADR-RES ovarian): 2150 nM
- TGI (NCI/ADR-RES ovarian): 4730 nM
- GI50 (HCT-116 colon): 1580 nM
- TGI (HCT-116 colon): 3650 nM
- GI50 (RPMI-8226 leukemia): 1870 nM
- TGI (RPMI-8226 leukemia): 4600 nM
- GI50 (UO-31 renal): 1470 nM
- TGI (UO-31 renal): 5550 nM
- GI50 (SF-268 CNS): 1860 nM
- TGI (SF-268 CNS): 4090 nM
- GI50 (U251 CNS): 1750 nM
- TGI (U251 CNS): 3170 nM
- GI50 (COLO 205 colon): 2130 nM
- TGI (COLO 205 colon): 4020 nM
- GI50 (OVCAR-8 ovarian): 2090 nM
- TGI (OVCAR-8 ovarian): 5680 nM
- GI50 (NCI-H23 lung): 2090 nM
- TGI (NCI-H23 lung): 4150 nM
- GI50 (HS 578T breast): 2240 nM
- TGI (HS 578T breast): 8730 nM
- GI50 (A549 NSCLC): 2070 nM
- TGI (A549 NSCLC): 5540 nM
- GI50 (DU-145 prostate): 1660 nM
- TGI (DU-145 prostate): 3080 nM
- GI50 (HOP-92 NSCLC): 1730 nM
- TGI (HOP-92 NSCLC): 3500 nM
- GI50 (ACHN renal): 3350 nM
- TGI (ACHN renal): 12300 nM
- GI50 (HT29 colon): 2200 nM
- TGI (HT29 colon): 4750 nM
- GI50 (MDA-MB-231 breast): 2760 nM
- TGI (MDA-MB-231 breast): 8330 nM
- GI50 (OVCAR-3 ovarian): 1710 nM
- TGI (OVCAR-3 ovarian): 3100 nM
- GI50 (EKVX NSCLC): 1600 nM
- TGI (EKVX NSCLC): 3560 nM
- GI50 (HCT-15 colon): 1790 nM
- TGI (HCT-15 colon): 4020 nM
- GI50 (OVCAR-4 ovarian): 2900 nM
- TGI (OVCAR-4 ovarian): 11900 nM
- GI50 (NCI-H226 lung): 2680 nM
- TGI (NCI-H226 lung): 9120 nM
- GI50 (CCRF-CEM leukemia): 2660 nM
- TGI (CCRF-CEM leukemia): 11000 nM
- GI50 (786-0 renal): 1810 nM
- TGI (786-0 renal): 3540 nM
- GI50 (SK-MEL-2 melanoma): 2230 nM
- TGI (SK-MEL-2 melanoma): 4650 nM
- GI50 (RXF 393 renal): 1720 nM
- TGI (RXF 393 renal): 3240 nM
- GI50 (NCI-H522 lung): 1960 nM
- TGI (NCI-H522 lung): 4890 nM
- GI50 (MCF7 breast): 1890 nM
- TGI (MCF7 breast): 5620 nM
- GI50 (CAKI-1 renal): 2270 nM
- TGI (CAKI-1 renal): 7290 nM
- GI50 (SF-539 CNS): 1690 nM
- TGI (SF-539 CNS): 3220 nM
- GI50 (SNB-19 CNS): 1930 nM
- TGI (SNB-19 CNS): 3960 nM
- GI50 (SN12C renal): 1760 nM
- TGI (SN12C renal): 3420 nM
- GI50 (SR leukemia): 1370 nM
- TGI (SR leukemia): 4360 nM
- GI50 (MALME-3M melanoma): 1820 nM
- TGI (MALME-3M melanoma): 3960 nM
- GI50 (BT-549 breast): 1730 nM
- TGI (BT-549 breast): 3670 nM
- GI50 (SK-MEL-5 melanoma): 1650 nM
- TGI (SK-MEL-5 melanoma): 3210 nM
- GI50 (HL-60(TB) leukemia): 69.7 nM
- TGI (HL-60(TB) leukemia): 1930 nM
- GI50 (UACC-62 melanoma): 1730 nM
- TGI (UACC-62 melanoma): 3480 nM
- GI50 (HCC-2998 colon): 2090 nM
- TGI (HCC-2998 colon): 3650 nM
- GI50 (SK-MEL-28 melanoma): 1960 nM
- TGI (SK-MEL-28 melanoma): 3600 nM
- GI50 (M14 melanoma): 2070 nM
- TGI (M14 melanoma): 4740 nM
- GI50 (KM12 colon): 1820 nM
- TGI (KM12 colon): 3770 nM
- GI50 (MOLT-4 leukemia): 2230 nM
- TGI (MOLT-4 leukemia): 7970 nM
- GI50 (NCI-H460 lung): 2120 nM
- TGI (NCI-H460 lung): 5090 nM
- GI50 (MDA-MB-435): 2310 nM
- TGI (MDA-MB-435): 5530 nM
- GI50 (HOP-62 NSCLC): 2870 nM
- TGI (HOP-62 NSCLC): 8820 nM
- GI50 (LOX IMVI melanoma): 1670 nM
- TGI (LOX IMVI melanoma): 3160 nM
- GI50 (PC-3 prostate): 1730 nM
- TGI (PC-3 prostate): 3700 nM
- GI50 (IGROV1 ovarian): 1760 nM
- TGI (IGROV1 ovarian): 4100 nM
- GI50 (A498 renal): 1710 nM
- TGI (A498 renal): 3140 nM
- GI50 (SW-620 colon): 2370 nM
- TGI (SW-620 colon): 5720 nM
- GI50 (T-47D breast): 2280 nM
- TGI (T-47D breast): 6400 nM
- GI50 (TK-10 renal): 2620 nM
- TGI (TK-10 renal): 6470 nM
